From patent publication US20260285876A1, “MACROCYCLIC COMPOUNDS AS USP1 INHIBITORS” (GUANGDONG NEWOPP BIOPHARMACEUTICALS CO., LTD., priority 2023, published 2026)

Biological target: T1, USP1/UAF1 (Homo sapiens, UniProt O94782)
T1 construct: purchased R&D Systems
Experiment: Deubiquitination assay for USP1/UAF1 (ubiquitin-rhodamine 110 substrate)
Assay type: biochemical
Conditions: 0.5 nM USP1/UAF1, 150 nM ubiquitin-rhodamine, 50% inhibition compared to DMSO control
Procedure: Deubiquitination assay for USP1/UAF1: compounds described here were tested for their ability to inhibit USP1 deubiquitinase activity in this assay using ubiquitin-rhodamine 110 as the substrate. The assay was conducted in the assay buffer (50 mM Tris-HCl, pH 7.8, 0.5 mM EDTA, 0.1 mg/ml Bovine Serum Albumin, 1 mM DTT, 0.01% Tween-20) in 384 well plates. 0.5 nM USP1/UAF1 (R&D Systems) was incubated with compounds in dose response format for 10 minutes at room temperature. Then the reaction was initiated by addition of 150 nM ubiquitin-rhodamine (R&D Systems). The fluorescence intensity was read after 45 minutes at Ex488/Em535 by CLARIOstar (BMG Labtech). IC50 response curves were plotted.

T1 sequence (O94782 whole entry): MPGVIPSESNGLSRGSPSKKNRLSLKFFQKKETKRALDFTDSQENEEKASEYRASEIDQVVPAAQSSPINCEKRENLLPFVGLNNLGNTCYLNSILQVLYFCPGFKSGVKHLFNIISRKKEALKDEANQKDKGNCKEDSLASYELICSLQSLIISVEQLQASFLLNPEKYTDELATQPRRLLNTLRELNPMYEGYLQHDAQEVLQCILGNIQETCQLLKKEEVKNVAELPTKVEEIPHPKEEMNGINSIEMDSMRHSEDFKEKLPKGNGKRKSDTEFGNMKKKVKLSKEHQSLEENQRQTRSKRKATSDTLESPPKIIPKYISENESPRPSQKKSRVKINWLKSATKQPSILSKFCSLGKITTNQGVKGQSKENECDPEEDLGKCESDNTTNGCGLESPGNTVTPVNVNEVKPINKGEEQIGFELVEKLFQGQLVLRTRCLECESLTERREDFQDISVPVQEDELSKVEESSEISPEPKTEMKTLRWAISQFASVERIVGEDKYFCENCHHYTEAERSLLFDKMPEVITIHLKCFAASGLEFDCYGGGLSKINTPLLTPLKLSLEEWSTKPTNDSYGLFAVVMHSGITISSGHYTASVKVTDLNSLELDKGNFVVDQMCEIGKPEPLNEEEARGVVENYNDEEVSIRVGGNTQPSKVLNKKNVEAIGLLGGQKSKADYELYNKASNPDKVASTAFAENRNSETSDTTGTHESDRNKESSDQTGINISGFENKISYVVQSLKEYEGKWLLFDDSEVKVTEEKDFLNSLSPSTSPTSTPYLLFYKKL
T1 sequence (Q8TAF3 whole entry partner): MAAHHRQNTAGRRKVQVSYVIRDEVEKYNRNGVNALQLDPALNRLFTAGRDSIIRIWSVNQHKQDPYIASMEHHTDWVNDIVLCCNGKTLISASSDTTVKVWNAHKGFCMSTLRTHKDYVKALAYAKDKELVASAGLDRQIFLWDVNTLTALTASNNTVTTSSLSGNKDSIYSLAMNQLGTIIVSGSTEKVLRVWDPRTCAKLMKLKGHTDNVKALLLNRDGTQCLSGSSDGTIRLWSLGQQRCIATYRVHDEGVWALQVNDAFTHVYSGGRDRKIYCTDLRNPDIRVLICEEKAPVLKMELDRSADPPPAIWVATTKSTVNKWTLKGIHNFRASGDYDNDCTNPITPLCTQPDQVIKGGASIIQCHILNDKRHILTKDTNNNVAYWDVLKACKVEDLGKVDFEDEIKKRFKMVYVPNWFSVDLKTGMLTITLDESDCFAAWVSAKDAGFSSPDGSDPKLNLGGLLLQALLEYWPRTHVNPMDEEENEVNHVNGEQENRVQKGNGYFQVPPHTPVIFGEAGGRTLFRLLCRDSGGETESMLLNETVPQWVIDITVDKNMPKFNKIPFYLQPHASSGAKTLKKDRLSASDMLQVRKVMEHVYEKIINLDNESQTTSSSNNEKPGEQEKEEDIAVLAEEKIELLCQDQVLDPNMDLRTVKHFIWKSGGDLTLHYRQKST

## CC(C)n1cc(C(F)(F)F)nc1-c1ccc2c(c1)CCCOc1ncnc(C3CC3)c1-c1ncc3ccc(=O)n(c3n1)C2 [Example 25, 1^6-cyclopropyl-4^4-(1-isopropyl-4-(trifluoromethyl)-1H-imidazol-2-yl)-2^7,2^8-dihydro-8-oxa-2(2,8)-pyrido[2,3-d]pyrimidina-1(5,4)-pyrimidina-4(1,2)-benzenacyclooctaphan-2^7-one]
  IC50: ≤ 100 nM

## CC(C)n1cc(C(F)(F)F)nc1-c1ccc2c(c1)NCCCOc1cccc(C3CC3)c1-c1ncc3cnn(c3n1)C2 [Example 26, 1^6-cyclopropyl-4^4-(1-isopropyl-4-(trifluoromethyl)-1H-imidazol-2-yl)-2^1H-9-oxa-5-aza-2(6,1)-pyrazolo[3,4-d]pyrimidina-1,4(1,2)-dibenzenacyclononaphane]
  IC50: ≤ 100 nM

## CC(C)n1cc(C(F)(F)F)nc1-c1ccc2c(c1)SCCOc1ncnc(C3CC3)c1-c1ncc3cnn(c3n1)C2 [Example 27, 1^6-cyclopropyl-4^4-(1-isopropyl-4-(trifluoromethyl)-1H-imidazol-2-yl)-2^1H-8-oxa-5-thia-2(6,1)-pyrazolo[3,4-d]pyrimidina-1(5,4)-pyrimidina-4(1,2)-benzenacyclooctaphane]
  IC50: ≤ 100 nM

## CC(C)n1cc(C(F)(F)F)nc1-c1ccc2c(c1)COCCOc1ncnc(C3CC3)c1-c1ncc3cnn(c3n1)C2 [Example 28, 1^6cyclopropyl-4^4-(1-isopropyl-4-(trifluoromethyl)-1H-imidazol-2-yl)-2^1H-6,9-dioxa-2(6,1)-pyrazolo[3,4-d]pyrimidina-1(5,4)-pyrimidina-4(1,2)-benzenacyclononaphane]
  IC50: ≤ 100 nM

## CC(C)n1cc(C(F)(F)F)nc1-c1ccc2cc1OCCOc1ncnc(C3CC3)c1-c1ncc3cnn(c3n1)C2 [Example 29, 1^6-cyclopropyl-44-(1-isopropyl-4-(trifluoromethyl)-1H-imidazol-2-yl)-2^1H-5,8-dioxa-2(6,1)-pyrazolo[3,4-d]pyrimidina-1(5,4)-pyrimidina-4(1,3)-benzenacyclooctaphane]
  IC50: ≤ 100 nM

## CC(C)n1cc(C(F)(F)F)nc1-c1ccc2c(c1)/C=C/COc1ncnc(C3CC3)c1-c1ncc3cnn(c3n1)C2 [Example 30, (E)-1^6-cyclopropyl-4^4-(1-isopropyl-4-(trifluoromethyl)-1H-imidazol-2-yl)-2^1H-8-oxa-2(6,1)-pyrazolo[3,4-d]pyrimidina-1(5,4)-pyrimidina-4(1,2)-benzenacyclooctaphan-5-ene]
  IC50: ≤ 100 nM

## CC(C)n1cc(C(F)(F)F)nc1-c1ccc2c(c1)OCCOc1ncnc(C3CC3)c1-c1ncc3ccc(n3n1)C2 [Example 31, (Z)-1^6-cyclopropyl-4^4-(1-isopropyl-4-(trifluoromethyl)-1H-imidazol-2-yl)-5,8-dioxa-2(2,7)-pyrrolo[2,1-f][1,2,4]triazina-1(5,4)-pyrimidina-4(1,2)-benzenacyclooctaphane]
  IC50: ≤ 100 nM

## FC(F)(F)c1cn(C2CC2)c(-c2ccc3c(c2)CCCOc2ncnc(C4CC4)c2-c2ncc4ccc(n4n2)C3)n1 [Example 32, (Z)-1^6-cyclopropyl-4^4-(1-cyclopropyl-4-(trifluoromethyl)-1H-imidazol-2-yl)-8-oxa-2(2,7)-pyrrolo[2,1-f][1,2,4]triazina-1(5,4)-pyrimidina-4(1,2)-benzenacyclooctaphane]
  IC50: ≤ 100 nM

## CC(C)n1cc(C(F)(F)F)nc1-c1ccc2c(c1)NCCCOc1ncnc(C3CC3)c1-c1ncc3ccc(n3n1)C2 [Example 33, (Z)-1^6-cyclopropyl-4^4-(1-isopropyl-4-(trifluoromethyl)-1H-imidazol-2-yl)-9-oxa-5-aza-2(2,7)-pyrrolo[2,1-f][1,2,4]triazina-1(5,4)-pyrimidina-4(1,2)-benzenacyclononaphane]
  IC50: ≤ 100 nM

## Fc1cc2n3nc(ncc13)-c1c(ncnc1C1CC1)OCCOc1cc(-c3nc(C(F)(F)F)cn3C3CC3)ccc1C2 [Example 34, (Z)-1^6-cyclopropyl-4^4-(1-cyclopropyl-4-(trifluoromethyl)-1H-imidazol-2-yl)-2^5-fluoro-5,8-dioxa-2(2,7)-pyrrolo[2,1-f][1,2,4]triazina-1(5,4)-pyrimidina-4(1,2)-benzenacyclooctaphane]
  IC50: ≤ 100 nM

## CC(C)n1cc(C(F)(F)F)nc1-c1ccc2c(c1)NCCCOc1ncnc(C3CC3)c1-c1ncc3ccn(c3n1)C2 [Example 35, 1^6-cyclopropyl-4^4-(1-isopropyl-4-(trifluoromethyl)-1H-imidazol-2-yl)-2^7H-9-oxa-5-aza-2(2,7)-pyrrolo[2,3-d]pyrimidina-1(5,4)-pyrimidina-4(1,2)-benzenacyclononaphane]
  IC50: ≤ 100 nM

## FC(F)(F)c1cc(C2CC2)n(-c2ccc3c(c2)NCCCOc2c(ncnc2C2CC2)-c2ncc4cnn(c4n2)C3)n1 [Example 36, 1-cyclopropyl-4-(5-cyclopropyl-3-(trifluoromethyl)-1H-pyrazol-1-yl)-21H-9-oxa-5-aza-2(6,1)-pyrazolo[3,4-d]pyrimidina-1(5,4)-pyrimidina-4(1,2)-benzenacyclononaphane]
  IC50: ≤ 100 nM

## CC(C)c1cc(C(F)(F)F)nn1-c1ccc2c(c1)NCCCOc1ncnc(C3CC3)c1-c1ncc3cnn(c3n1)C2 [Example 37, 16-cyclopropyl-44-(5-isopropyl-3-(trifluoromethyl)-1H-pyrazol-1-yl)-21H-9-oxa-5-aza-2(6,1)-pyrazolo[3,4-d]pyrimidina-1(5,4)-pyrimidina-4(1,2)-benzenacyclononaphane]
  IC50: ≤ 100 nM

## CC(C)n1cc(C(F)(F)F)nc1-c1ccc2cc1OCCCOc1ncnc(C3CC3)c1-c1ncc3cnn(c3n1)C2 [Example 38, 1^6-cyclopropyl-4^4-(1-isopropyl-4-(trifluoromethyl)-1H-imidazol-2-yl)-2^1H-5,9-dioxa-2(6,1)-pyrazolo[3,4-d]pyrimidina-1(5,4)-pyrimidina-4(1,3)-benzenacyclononaphane]
  IC50: ≤ 100 nM

## FC(F)(F)c1cn(C2CC2)c(-c2ccc3c(c2)/C=C/COc2ncnc(C4CC4)c2-c2ncc4ccc(n4n2)C3)n1 [Example 39, (2^1Z,5E)-1^6-cyclopropyl-4^4-(1-cyclopropyl-4-(trifluoromethyl)-1H-imidazol-2-yl)-8-oxa-2(2,7)-pyrrolo[2,1-f][1,2,4]triazina-1(5,4)-pyrimidina-4(1,2)-benzenacyclooctaphan-5-ene]
  IC50: 100 to 1000 nM

## CC(C)n1cc(C(F)(F)F)nc1-c1ccc2cc1NCCOc1ncnc(C3CC3)c1-c1ncc3cnn(c3n1)C2 [Example 40, 1^6-cyclopropyl-4^4-(1-isopropyl-4-(trifluoromethyl)-1H-imidazol-2-yl)-2H-8-oxa-5-aza-2(6,1)-pyrazolo[3,4-d]pyrimidina-1(5,4)-pyrimidina-4(1,3)-benzenacyclooctaphane]
  IC50: ≤ 100 nM

## FC(F)(F)c1cn(C2CC2)c(-c2ccc3c(c2)NCCCOc2ncnc(C4CC4)c2-c2ncc4ccc(n4n2)C3)n1 [Example 41, (Z)-1^6-cyclopropyl-4^4-(1-cyclopropyl-4-(trifluoromethyl)-1H-imidazol-2-yl)-9-oxa-5-aza-2(2,7)-pyrrolo[2,1-f][1,2,4]triazina-1(5,4)-pyrimidina-4(1,2)-benzenacyclononaphane]
  IC50: ≤ 100 nM

## FC(F)(F)c1cn(C2CC2)c(-c2ccc3c(c2)NCCOc2ncnc(C4CC4)c2-c2ncc4ccc(n4n2)C3)n1 [Example 42, (Z)-1^6-cyclopropyl-4^4-(1-cyclopropyl-4-(trifluoromethyl)-1H-imidazol-2-yl)-8-oxa-5-aza-2(2,7)-pyrrolo[2,1-f][1,2,4]triazina-1(5,4)-pyrimidina-4(1,2)-benzenacyclooctaphane]
  IC50: ≤ 100 nM
